Reference: US20230104936A1, “TRPML MODULATORS” (Casma Therapeutics, Inc., priority 2019, published 2023)

Each compound was assayed on TFEB (assay: TFEB nuclear translocation assay, HeLa wt cells). Conditions: 2 hrs compound treatment, Table 1 does not say HeLa wt or TRPML1 KO.
Format: cell-based
Outline: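 Cells are plated overnight, exposed to compounds for 2 hrs at 37° C, fixed with 4% PFA, blocked, and stained overnight at 4° C with rabbit anti-TFEB. After Alexa 488 secondary and Hoechst, nuclei and a perinuclear ring are segmented to give a nuclear:ring intensity ratio and AC50.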
`CC(c1cc(Cl)cnc1N1CCC(CN2CCC(F)(F)CC2)CC1)S(=O)(=O)c1ccc2c(c1)CCC2` (single isomer, unassigned) [Compound A-994, 5-chloro-2-(4-((4,4-difluoropiperidin-1-yl)methyl)piperidin-1-yl)-3-(1-((2,3-dihydro-1H-inden-5-yl)sulfonyl)ethyl)pyridine] showed an AC50 of at most 2000 nM.
`Cc1cnc(N2CCC(CN3CCC(F)(F)CC3)CC2)c(C(C)S(=O)(=O)c2ccc(S(=O)(=O)N(C)C)cc2)c1` (single isomer, unassigned) [Compound A-995, 4-((1-(2-(4-((4,4-difluoropiperidin-1-yl)methyl)piperidin-1-yl)-5-methylpyridin-3-yl)ethyl)sulfonyl)-N,N-dimethylbenzenesulfonamide] gave an AC50 of at least 10000 nM.
In the case of `CC(c1cccc(F)c1N1CCC(CN2CCC(F)(F)CC2)CC1)S(=O)(=O)c1ccc(C(F)F)cc1` (single isomer, unassigned) [Compound A-998, 1-((1-(2-(1-((4-(difluoromethyl)phenyl)sulfonyl)ethyl)-6-fluorophenyl)piperidin-4-yl)methyl)-4,4-difluoropiperidine], the AC50 is reported as 2010 to 8000 nM.
`Cc1cnc(N2CCC(CN3CCC(F)(F)CC3)CC2)c(C(C)S(=O)(=O)c2ccc3c(c2)CCC3)c1` (single isomer, unassigned) [Compound A-999, 2-(4-((4,4-difluoropiperidin-1-yl)methyl)piperidin-1-yl)-3-(1-((2,3-dihydro-1H-inden-5-yl)sulfonyl)ethyl)-5-methylpyridine] showed an AC50 of at most 2000 nM.
In the case of `Cc1cnc(N2CCC(CN3CCC(F)(F)CC3)CC2)c(C(C)S(=O)(=O)c2ccc3c(c2)CCC3)c1` (single isomer, unassigned) [Compound A-1000, 2-(4-((4,4-difluoropiperidin-1-yl)methyl)piperidin-1-yl)-3-(1-((2,3-dihydro-1H-inden-5-yl)sulfonyl)ethyl)-5-methylpyridine], the AC50 is reported as at least 10000 nM.
`C[C@@H]1CN(CC2CCN(c3c(F)cccc3[C@H](C)S(=O)(=O)c3ccc(S(=N)(=O)N(C)C)cc3)CC2)C[C@H](C)O1` (single isomer, unassigned) [Compound A-1001] was tested, and the AC50 was at most 2000 nM.
In the case of `COCC1(C)CCN(c2ccccc2C(C)S(=O)(=O)c2ccc(S(=O)(=O)N(C)C)cc2)CC1` (single isomer, unassigned; enantiomer 2) [Compound A-699, 4-((1-(2-(4-(methoxymethyl)-4-methylpiperidin-1-yl)phenyl)ethyl)sulfonyl)-N,N-dimethylbenzenesulfonamide, enantiomer 2], the AC50 is reported as 2010 to 8000 nM.

Same assay, conditions: Homo sapiens, HeLa, 2 h, 2 hrs compound treatment, Table 1 does not say HeLa wt or TRPML1 KO
`CC(c1cccc(F)c1N1CCC(CN2CCC(F)(F)CC2)CC1)S(=O)(=O)c1ccc(C(F)F)cc1` (single isomer, unassigned) [Compound A-997, 1-((1-(2-(1-((4-(difluoromethyl)phenyl)sulfonyl)ethyl)-6-fluorophenyl)piperidin-4-yl)methyl)-4,4-difluoropiperidine] showed an AC50 of at most 2000 nM.
For `COCC1(C)CCN(c2ccccc2C(C)S(=O)(=O)c2ccc(S(=O)(=O)N(C)C)cc2)CC1` (single isomer, unassigned; enantiomer 1) [Compound A-698, 4-((1-(2-(4-(methoxymethyl)-4-methylpiperidin-1-yl)phenyl)ethyl)sulfonyl)-N,N-dimethylbenzenesulfonamide, enantiomer 1], the AC50 was at most 2000 nM.
`C[C@@H]1COC[C@@H](C)N1CC1CN(c2c(F)cccc2NS(=O)(=O)c2ccc(S(=O)(=O)N(C)C)cc2)C1` (stereo in doubt) [Compound A-873, N1-(2-(3-((3,5-dimethylmorpholino)methyl)azetidin-1-yl)-3-fluorophenyl)-N4,N4-dimethylbenzene-1,4-disulfonamide] gave an AC50 of at least 10000 nM.
With `C[C@@H]1COC[C@@H](C)N1CC1CN(c2c(F)cccc2NS(=O)(=O)c2ccc(S(=O)(=O)N(C)C)cc2)C1` (stereo in doubt) [Compound A-915, rel-N4-[2-(3-{[(3R,5R)-3,5-dimethylmorpholin-4-yl]methyl}azetidin-1-yl)-3-fluorophenyl]-N1,N1-dimethylbenzene-1,4-disulfonamide] the AC50 was at least 10000 nM.
`C[C@H]1COC[C@H](C)N1CC1CN(c2c(F)cccc2NS(=O)(=O)c2ccc(S(=O)(=O)N(C)C)cc2)C1` (stereo in doubt) [Compound A-916, rel-N4-[2-(3-{[(3R,5R)-3,5-dimethylmorpholin-4-yl]methyl}azetidin-1-yl)-3-fluorophenyl]-N1,N1-dimethylbenzene-1,4-disulfonamide] was tested, and the AC50 was at least 10000 nM.
`O=S(=O)(Nc1ccccc1N1CCN(c2ccc(Cl)cc2F)CC1)c1cccnc1` [Compound A-1, N-{2-[4-(4-chloro-2-fluorophenyl)piperazin-1-yl]phenyl}pyridine-3-sulfonamide] gave an AC50 of at most 2000 nM.
In the case of `Cn1cnc(S(=O)(=O)Nc2ccccc2N2CCN(c3ccc(Cl)cc3F)CC2)c1` [Compound A-2, N-{2-[4-(4-chloro-2-fluorophenyl)piperazin-1-yl]phenyl}-1-methyl-1H-imidazole-4-sulfonamide], the AC50 is reported as at most 2000 nM.
`CN(C)S(=O)(=O)c1ccc(S(=O)(=O)Nc2ccccc2C#Cc2ccc(Cl)cc2F)cc1` [Compound A-3, N1-(2-((4-chloro-2-fluorophenyl)ethynyl)phenyl)-N4,N4-dimethylbenzene-1,4-disulfonamide] gave an AC50 of at most 2000 nM.
In the case of `COc1cccc(S(=O)(=O)Nc2ccccc2N2CCN(c3ccc(Cl)cc3F)CC2)c1` [Compound A-4, N-{2-[4-(4-chloro-2-fluorophenyl)piperazin-1-yl]phenyl}-3-methoxybenzene-1-sulfonamide], the AC50 is reported as at most 2000 nM.
Work on `N#Cc1cccc(S(=O)(=O)Nc2ccccc2N2CCN(c3ccc(Cl)cc3F)CC2)c1` [Compound A-5, N-{2-[4-(4-chloro-2-fluorophenyl)piperazin-1-yl]phenyl}-3-cyanobenzene-1-sulfonamide] yielded an AC50 of 2010 to 8000 nM.
For `Cn1cc(S(=O)(=O)Nc2ccccc2N2CCN(c3ccc(Cl)cc3F)CC2)cn1` [Compound A-6, N-{2-[4-(4-chloro-2-fluorophenyl)piperazin-1-yl]phenyl}-1-methyl-1H-pyrazole-4-sulfonamide], the AC50 was at least 10000 nM.
`Cc1nc(C)c(S(=O)(=O)Nc2ccccc2N2CCN(c3ccc(Cl)cc3F)CC2)s1` [Compound A-7, N-{2-[4-(4-chloro-2-fluorophenyl)piperazin-1-yl]phenyl}-2,4-dimethyl-1,3-thiazole-5-sulfonamide] showed an AC50 of at most 2000 nM.
`O=S(=O)(Nc1ccccc1N1CCN(c2ccc(Cl)cc2F)CC1)C1CCCCC1` [Compound A-8, N-{2-[4-(4-chloro-2-fluorophenyl)piperazin-1-yl]phenyl}cyclohexanesulfonamide] gave an AC50 of at least 10000 nM.
With `CN(C)S(=O)(=O)c1ccc(NC(=O)c2ccccc2N2CCN(c3ccc(Cl)cc3F)CC2)cc1` [Compound A-9, 2-(4-(4-chloro-2-fluorophenyl)piperazin-1-yl)-N-(4-(N,N-dimethylsulfamoyl)phenyl)benzamide] the AC50 was at most 2000 nM.
`CN(C)S(=O)(=O)c1ccc(S(=O)(=O)Nc2ccccc2N2CCC(c3ccccc3F)CC2)cc1` [Compound A-10, N4-{2-[4-(2-fluorophenyl)piperidin-1-yl]phenyl}-N1,N1-dimethylbenzene-1,4-disulfonamide] was tested, and the AC50 was at most 2000 nM.
`CN(C)S(=O)(=O)c1ccc(C(=O)Nc2ccccc2N2CCN(c3ccc(Cl)cc3F)CC2)cc1` [Compound A-11, N-{2-[4-(4-chloro-2-fluorophenyl)piperazin-1-yl]phenyl}-4-(dimethylsulfamoyl)benzamide] gave an AC50 of at most 2000 nM.
`CN(C)S(=O)(=O)c1ccc(S(=O)(=O)Nc2ccccc2N2CCN(c3ccc(Cl)cc3F)CC2)cc1` [Compound A-12, N4-{2-[4-(4-chloro-2-fluorophenyl)piperazin-1-yl]phenyl}-N1,N1-dimethylbenzene-1,4-disulfonamide] was tested, and the AC50 was at most 2000 nM.
Compound `O=S(=O)(Nc1ccccc1N1CCN(c2ccc(Cl)cc2F)CC1)C1CCOCC1` [Compound A-14, N-{2-[4-(4-chloro-2-fluorophenyl)piperazin-1-yl]phenyl}oxane-4-sulfonamide] has an AC50 of 2010 to 8000 nM.
For `Cn1nccc1S(=O)(=O)Nc1ccccc1N1CCN(c2ccc(Cl)cc2F)CC1` [Compound A-15, N-{2-[4-(4-chloro-2-fluorophenyl)piperazin-1-yl]phenyl}-1-methyl-1H-pyrazole-5-sulfonamide], the AC50 was at least 10000 nM.
In the case of `CN1CCC(S(=O)(=O)Nc2ccccc2N2CCN(c3ccc(Cl)cc3F)CC2)CC1` [Compound A-16, N-{2-[4-(4-chloro-2-fluorophenyl)piperazin-1-yl]phenyl}-1-methylpiperidine-4-sulfonamide], the AC50 is reported as 2010 to 8000 nM.
With `CC(=O)N1CCC(S(=O)(=O)Nc2ccccc2N2CCN(c3ccc(Cl)cc3F)CC2)CC1` [Compound A-17, 1-acetyl-N-{2-[4-(4-chloro-2-fluorophenyl)piperazin-1-yl]phenyl}piperidine-4-sulfonamide] the AC50 was 2010 to 8000 nM.
For `Cc1nn(C)c(N2CCN(c3ccc(Cl)cc3F)CC2)c1NS(=O)(=O)c1ccc(S(=O)(=O)N(C)C)cc1` [Compound A-18, N1-(5-(4-(4-chloro-2-fluorophenyl)piperazin-1-yl)-1,3-dimethyl-1H-pyrazol-4-yl)-N4,N4-dimethylbenzene-1,4-disulfonamide], the AC50 was at most 2000 nM.
`CN(C)S(=O)(=O)c1ccc(S(=O)(=O)Nc2ccccc2C2=CCN(c3ccc(Cl)cc3F)CC2)cc1` [Compound A-19, N1-(2-(1-(4-chloro-2-fluorophenyl)-1,2,3,6-tetrahydropyridin-4-yl)phenyl)-N4,N4-dimethylbenzene-1,4-disulfonamide] gave an AC50 of at most 2000 nM.
For `O=S(=O)(Nc1ccccc1N1CCN(c2ccc(Cl)cc2F)CC1)c1ccccn1` [Compound A-20, N-{2-[4-(4-chloro-2-fluorophenyl)piperazin-1-yl]phenyl}pyridine-2-sulfonamide], the AC50 was at most 2000 nM.
Compound `Cn1ccc(S(=O)(=O)Nc2ccccc2N2CCN(c3ccc(Cl)cc3F)CC2)n1` [Compound A-21, N-{2-[4-(4-chloro-2-fluorophenyl)piperazin-1-yl]phenyl}-1-methyl-1H-pyrazole-3-sulfonamide] has an AC50 of 2010 to 8000 nM.
